Assay results taken from a melting point compilation (Tetko et al.; mined from patent text by program, amines drawn as free bases though some values may be those of a salt).

melting point [°C] | SMILES
149 to 151 | COc1c(C)c(N2CCN(c3ccc4c(c3)OC(F)(F)O4)CC2)c(C)c2c1OC(C)(C)C2
153 to 155 | COc1ccc2c(Cl)nc(Cl)nc2c1OC
167 to 169 | O=C1C[C@@H](Nc2ncnc3c2ncn3[C@@H]2O[C@H](CO)[C@@H](O)[C@H]2O)C(=O)N1
184 to 185 | Cc1cccc(C(=O)Nc2cn(C3CCCCO3)nc2C(=O)NCC(F)(F)F)n1 (stereo not drawn)
134 to 136 | Cc1cc(-n2ccc(OCCC3CC3)cc2=O)sc1C(=O)NCc1ccccc1
127 to 128 | Cc1c(-c2ccc(OC(F)(F)F)cc2)[nH]c2ccc(OCc3ccccc3)cc12
120 | CN(C(=O)CN(C(=O)CNC(=O)Nc1cccc(CO)c1)c1ccccc1)c1ccccc1
166 to 168 | Oc1ccccc1-c1nc(-c2ccccc2O)n(Cc2ccccc2)n1
207 to 209 | CC(C)(C)c1ccc2c(O)ccnc2c1
186 to 188 | CSc1sc(-c2nnc(C)o2)c2c1C(=O)CC(C)(C)C2
275 to 278 | O=c1[nH]nc(-c2cc(C(F)(F)F)cc(C(F)(F)F)c2)n1-c1cc(Cl)ccc1O
113 | CC(C)CCn1c(CN2C(=O)N(C3CC3)Cc3ccccc32)nc2cc(CN)ccc21
126 to 128 | CCOC(=O)C=C(C)C=CC=C(C)C=Cc1c(Cl)cc(OC)c(Cl)c1Cl
186 to 187 | CCCCn1c(COCC)nc2c(N)nc3ccc(-c4ccccc4)cc3c21
100 | COc1cc2c(cc1Nc1ncc(Cl)c(Nc3ccccc3S(=O)(=O)C(C)C)n1)CCN(CC(=O)N1CCOCC1)CC2
270 to 274 | Cc1cc(-c2ccc(OCc3ccncc3)cc2)cc2ccc(=O)[nH]c12
152 to 153 | O=Cc1ccnc2ccc(Cl)cc12
88 to 89 | CC(Oc1ccc(Br)cc1)(C(=O)O)c1ccccc1 (stereo not drawn)
95 to 96 | CNC(=NO)Nc1ccccc1

melting point [°C] | SMILES
145 | CC(C)(C)OC(=O)CN(C(=O)CN1C(=O)c2ccccc2C1=O)c1ccccc1-c1ccccc1
205 to 207 | CC(C)(C)OC(=O)N[C@@H]1CCCC[C@H]1OCC(=O)O (relative stereo)
62 to 64 | OCCN1CCC(Cc2ccccc2)CC1
135 to 136 | O=C(NCCO)c1cccc(-c2cccc3oc(Cc4cccc(C(F)(F)F)c4)cc23)c1
163 to 164 | CC1(C)C=C(C(=O)NCCC#N)c2cc(C(F)(F)C(F)(F)F)ccc2O1
92 | O=C(O)Cc1ccc(OCCNC(=O)C2Cc3ccccc3N2S(=O)(=O)c2ccc(-c3ccc(F)cc3)c(C(F)(F)F)c2)cc1 (stereo not drawn)
233 to 235 | Cc1nc(Sc2ncccc2C(=O)O)sc1CC(=O)O
116 to 118 | COc1cc2c(cc1Cl)CCN(C)CC2c1ccc(Br)cc1 (stereo not drawn)
76.9 to 77.7 | COC(CCl)NC(=O)c1ccccc1 (stereo not drawn)
160 to 161 | Cc1ccc2[nH]c(S(=O)(=O)CC(F)(F)F)nc2c1
152 | CN1CCC(=C2c3ccc(F)cc3CCn3ccnc32)CC1
75.5 | COc1cc(N)ccc1C(=O)NC1(C)CCN(CCCOc2ccc(F)cc2)CC1
85.5 | CCC(C)COC(=O)Oc1ccc(-c2ccc(OC(=O)OCC(C)CC)cc2)cc1 (stereo not drawn)
204 to 206 | CC1CN(c2c(F)cc3c(=O)c(C(=O)O)cn4c3c2CC4C)CC(C)N1C (single isomer, unassigned; (+))
151 | Cc1ccc(O)c(C(OC2CCN(C)CC2)c2nc3ccccc3[nH]2)c1 (stereo not drawn)
187 to 188 | COCc1c(C(=O)OC(C)C)ncc2[nH]c3cccc(-c4cccnc4)c3c12
158 to 159 | CCOC(=O)c1cccc2nc(OCC)n(Cc3ccc(-c4ccccc4-c4nnn[nH]4)cc3)c12
263 to 265 | O=C(O)c1cccc(-c2ncn(-c3ccc(-c4ccccc4)cc3)n2)c1

SMILES | melting point [°C]
O=C(C(Cl)Cl)N1CCCCCC1 | 56
